# Experimental data as given in ChEMBL document CHEMBL5370644, “Subplenones A-J: Dimeric Xanthones with Antibacterial Activity from the Endophytic Fungus Subplenodomus sp. CPCC 401465” (2023).
# Test system: Staphylococcus aureus
# Assay: Antibacterial activity against methicillin-resistant Staphylococcus aureus ATCC 43300 assessed as bacterial growth inhibition incubated for 16 to 20 hrs by CLSI based two-fold serial dilution method
# Format: functional
# Details: time 16-20 hrs
row,Structure (SMILES),MIC [µg/mL]
1,CC1=C[C@H](O)[C@]2(O)C(=O)c3c(ccc(-c4ccc5c(c4O)C(=O)C4=C(O)C[C@@H](C)[C@H](O)[C@@]4(C)O5)c3O)O[C@@]2(C)[C@H]1O,0.5
2,CC1=CC(O)=C2C(=O)c3c(ccc(-c4ccc5c(c4O)C(=O)C4=C(O)C[C@@H](C)[C@H](O)[C@@]4(C)O5)c3O)O[C@@]2(C)[C@H]1O,0.5
3,CC1=CC(O)=C2C(=O)c3c(ccc(-c4ccc(O)c(C(=O)c5c(O)cc(C)c(O)c5C)c4O)c3O)O[C@@]2(C)[C@H]1O,1
4,CC1=CC(O)=C2C(=O)c3c(O)ccc(-c4ccc5c(c4O)C(=O)C4=C(O)C=C(C)[C@H](O)[C@]4(C)O5)c3O[C@]2(C)C1=O,1
5,CC1=CC(O)=C2C(=O)c3c(ccc(-c4ccc5c(c4O)C(=O)C4=C(O)C=C(C)[C@H](O)[C@]4(C)O5)c3O)O[C@@]2(C)C1=O,1

# Test system: Staphylococcus aureus
# Assay: Antibacterial activity against methicillin-resistant Staphylococcus aureus ATCC 700698 assessed as bacterial growth inhibition incubated for 16 to 20 hrs by CLSI based two-fold serial dilution method
# Format: functional
# Details: time 16-20 hrs
row,Structure (SMILES),MIC [µg/mL]
1,CC1=C[C@H](O)[C@]2(O)C(=O)c3c(ccc(-c4ccc5c(c4O)C(=O)C4=C(O)C[C@@H](C)[C@H](O)[C@@]4(C)O5)c3O)O[C@@]2(C)[C@H]1O,0.5
2,CC1=CC(O)=C2C(=O)c3c(ccc(-c4ccc5c(c4O)C(=O)C4=C(O)C[C@@H](C)[C@H](O)[C@@]4(C)O5)c3O)O[C@@]2(C)[C@H]1O,0.25
3,CC1=CC(O)=C2C(=O)c3c(ccc(-c4ccc(O)c(C(=O)c5c(O)cc(C)c(O)c5C)c4O)c3O)O[C@@]2(C)[C@H]1O,0.5
4,CC1=CC(O)=C2C(=O)c3c(O)ccc(-c4ccc5c(c4O)C(=O)C4=C(O)C=C(C)[C@H](O)[C@]4(C)O5)c3O[C@]2(C)C1=O,0.5
5,CC1=CC(O)=C2C(=O)c3c(ccc(-c4ccc5c(c4O)C(=O)C4=C(O)C=C(C)[C@H](O)[C@]4(C)O5)c3O)O[C@@]2(C)C1=O,0.5

# Test system: Staphylococcus aureus
# Assay: Antibacterial activity against methicillin-sensitive Staphylococcus aureus ATCC 29213 assessed as bacterial growth inhibition incubated for 16 to 20 hrs by CLSI based two-fold serial dilution method
# Format: functional
# Details: time 16-20 hrs
row,Structure (SMILES),MIC [µg/mL]
1,CC1=C[C@H](O)[C@]2(O)C(=O)c3c(ccc(-c4ccc5c(c4O)C(=O)C4=C(O)C[C@@H](C)[C@H](O)[C@@]4(C)O5)c3O)O[C@@]2(C)[C@H]1O,0.5
2,CC1=CC(O)=C2C(=O)c3c(ccc(-c4ccc5c(c4O)C(=O)C4=C(O)C[C@@H](C)[C@H](O)[C@@]4(C)O5)c3O)O[C@@]2(C)[C@H]1O,0.5
3,CC1=CC(O)=C2C(=O)c3c(ccc(-c4ccc(O)c(C(=O)c5c(O)cc(C)c(O)c5C)c4O)c3O)O[C@@]2(C)[C@H]1O,1
4,CC1=CC(O)=C2C(=O)c3c(O)ccc(-c4ccc5c(c4O)C(=O)C4=C(O)C=C(C)[C@H](O)[C@]4(C)O5)c3O[C@]2(C)C1=O,1
5,CC1=CC(O)=C2C(=O)c3c(ccc(-c4ccc5c(c4O)C(=O)C4=C(O)C=C(C)[C@H](O)[C@]4(C)O5)c3O)O[C@@]2(C)C1=O,1

# Test system: Enterococcus faecalis
# Assay: Antibacterial activity against vancomycin-resistant Enterococcus faecalis ATCC 51299 assessed as bacterial growth inhibition incubated for 16 to 20 hrs by CLSI based two-fold serial dilution method
# Format: functional
# Details: time 16-20 hrs
row,Structure (SMILES),MIC [µg/mL]
1,CC1=C[C@H](O)[C@]2(O)C(=O)c3c(ccc(-c4ccc5c(c4O)C(=O)C4=C(O)C[C@@H](C)[C@H](O)[C@@]4(C)O5)c3O)O[C@@]2(C)[C@H]1O,4
2,CC1=CC(O)=C2C(=O)c3c(ccc(-c4ccc5c(c4O)C(=O)C4=C(O)C[C@@H](C)[C@H](O)[C@@]4(C)O5)c3O)O[C@@]2(C)[C@H]1O,4
3,CC1=CC(O)=C2C(=O)c3c(ccc(-c4ccc(O)c(C(=O)c5c(O)cc(C)c(O)c5C)c4O)c3O)O[C@@]2(C)[C@H]1O,4
4,CC1=CC(O)=C2C(=O)c3c(O)ccc(-c4ccc5c(c4O)C(=O)C4=C(O)C=C(C)[C@H](O)[C@]4(C)O5)c3O[C@]2(C)C1=O,4
5,CC1=CC(O)=C2C(=O)c3c(ccc(-c4ccc5c(c4O)C(=O)C4=C(O)C=C(C)[C@H](O)[C@]4(C)O5)c3O)O[C@@]2(C)C1=O,4

# Test system: Enterococcus faecium
# Assay: Antibacterial activity against vancomycin-resistant Enterococcus faecium ATCC 700221 assessed as bacterial growth inhibition incubated for 16 to 20 hrs by CLSI based two-fold serial dilution method
# Format: functional
# Details: time 16-20 hrs
row,Structure (SMILES),MIC [µg/mL]
1,CC1=C[C@H](O)[C@]2(O)C(=O)c3c(ccc(-c4ccc5c(c4O)C(=O)C4=C(O)C[C@@H](C)[C@H](O)[C@@]4(C)O5)c3O)O[C@@]2(C)[C@H]1O,1
2,CC1=CC(O)=C2C(=O)c3c(ccc(-c4ccc5c(c4O)C(=O)C4=C(O)C[C@@H](C)[C@H](O)[C@@]4(C)O5)c3O)O[C@@]2(C)[C@H]1O,1
3,CC1=CC(O)=C2C(=O)c3c(ccc(-c4ccc(O)c(C(=O)c5c(O)cc(C)c(O)c5C)c4O)c3O)O[C@@]2(C)[C@H]1O,1
4,CC1=CC(O)=C2C(=O)c3c(O)ccc(-c4ccc5c(c4O)C(=O)C4=C(O)C=C(C)[C@H](O)[C@]4(C)O5)c3O[C@]2(C)C1=O,1
5,CC1=CC(O)=C2C(=O)c3c(ccc(-c4ccc5c(c4O)C(=O)C4=C(O)C=C(C)[C@H](O)[C@]4(C)O5)c3O)O[C@@]2(C)C1=O,2

# Test system: Enterococcus faecalis
# Assay: Antibacterial activity against vancomycin-sensitive Enterococcus faecalis ATCC 29212 assessed as bacterial growth inhibition incubated for 16 to 20 hrs by CLSI based two-fold serial dilution method
# Format: functional
# Details: time 16-20 hrs
row,Structure (SMILES),MIC [µg/mL]
1,CC1=C[C@H](O)[C@]2(O)C(=O)c3c(ccc(-c4ccc5c(c4O)C(=O)C4=C(O)C[C@@H](C)[C@H](O)[C@@]4(C)O5)c3O)O[C@@]2(C)[C@H]1O,2
2,CC1=CC(O)=C2C(=O)c3c(ccc(-c4ccc5c(c4O)C(=O)C4=C(O)C[C@@H](C)[C@H](O)[C@@]4(C)O5)c3O)O[C@@]2(C)[C@H]1O,2
3,CC1=CC(O)=C2C(=O)c3c(ccc(-c4ccc(O)c(C(=O)c5c(O)cc(C)c(O)c5C)c4O)c3O)O[C@@]2(C)[C@H]1O,2
4,CC1=CC(O)=C2C(=O)c3c(O)ccc(-c4ccc5c(c4O)C(=O)C4=C(O)C=C(C)[C@H](O)[C@]4(C)O5)c3O[C@]2(C)C1=O,4
5,CC1=CC(O)=C2C(=O)c3c(ccc(-c4ccc5c(c4O)C(=O)C4=C(O)C=C(C)[C@H](O)[C@]4(C)O5)c3O)O[C@@]2(C)C1=O,4

# Test system: Staphylococcus epidermidis
# Assay: Antibacterial activity against methicillin-sensitive Staphylococcus epidermidis ATCC 12228 assessed as bacterial growth inhibition incubated for 16 to 20 hrs by CLSI based two-fold serial dilution method
# Format: functional
# Details: time 16-20 hrs
row,Structure (SMILES),MIC [µg/mL]
1,CC1=C[C@H](O)[C@]2(O)C(=O)c3c(ccc(-c4ccc5c(c4O)C(=O)C4=C(O)C[C@@H](C)[C@H](O)[C@@]4(C)O5)c3O)O[C@@]2(C)[C@H]1O,≤ 0.125
2,CC1=CC(O)=C2C(=O)c3c(ccc(-c4ccc5c(c4O)C(=O)C4=C(O)C[C@@H](C)[C@H](O)[C@@]4(C)O5)c3O)O[C@@]2(C)[C@H]1O,≤ 0.125
3,CC1=CC(O)=C2C(=O)c3c(ccc(-c4ccc(O)c(C(=O)c5c(O)cc(C)c(O)c5C)c4O)c3O)O[C@@]2(C)[C@H]1O,≤ 0.125
4,CC1=CC(O)=C2C(=O)c3c(O)ccc(-c4ccc5c(c4O)C(=O)C4=C(O)C=C(C)[C@H](O)[C@]4(C)O5)c3O[C@]2(C)C1=O,0.25
5,CC1=CC(O)=C2C(=O)c3c(ccc(-c4ccc5c(c4O)C(=O)C4=C(O)C=C(C)[C@H](O)[C@]4(C)O5)c3O)O[C@@]2(C)C1=O,≤ 0.125
